The subject of the assay is P388 leukemia ip, CD2F1 mice, survival T/C. Put plainly: NCI In Vivo Anticancer Drug Screen. Data for tumor model P388 Leukemia (intraperitoneal) in CD2F1 (CDF1) mice. The conditions noted are these: endpoint: median survival time, higher = longer survival. The method in brief:
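Mice carrying the transplanted tumor received test compound or vehicle. Survival was recorded in each group, and the value is the treated-group measurement divided by that of the vehicle-treated control group.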

The mark [1] stands for this setting: dose: 25.0 mg/kg/injection, schedule: Q01DX009 (ip), vehicle: Klucel (hydroxypropylcellulose) (HPC).
The mark [2] stands for this setting: dose: 50.0 mg/kg/injection, schedule: Q01DX005 (ip), vehicle: Klucel (hydroxypropylcellulose) (HPC).
Where [3] appears, read: dose: 100.0 mg/kg/injection, schedule: Q01DX005 (ip), vehicle: Klucel (hydroxypropylcellulose) (HPC).
Where [4] appears, read: dose: 200.0 mg/kg/injection, schedule: Q01DX005 (ip), vehicle: Klucel (hydroxypropylcellulose) (HPC).
[5] abbreviates: dose: 50.0 mg/kg/injection, schedule: Q01DX005 (ip), vehicle: saline with Tween-80.
Where [6] appears, read: dose: 100.0 mg/kg/injection, schedule: Q01DX005 (ip), vehicle: saline with Tween-80.
Where [7] appears, read: dose: 100.0 mg/kg/injection, schedule: Q04DX003 (ip), vehicle: saline.
Where [8] appears, read: dose: 200.0 mg/kg/injection, schedule: Q04DX003 (ip), vehicle: saline.
[9] abbreviates: dose: 400.0 mg/kg/injection, schedule: Q04DX003 (ip), vehicle: saline.

Each structure is given as a SMILES string. “And” between values parts separate entries of the source, which are not always exact repeats. Identical values can stand only once. Toxic doses and inconclusive results are not listed. Peptide text beside a SMILES is read from it. * marks the point of attachment. Cbz = O=C(OCc1ccccc1)*; Bn = c1ccc(C*)cc1

Regarding `CSc1nc2n(Cc3cn(C)c(=O)n(C)c3=O)cc(C)cc-2c(=O)n1`, the T/C (dose: 100.0 mg/kg/injection, schedule: Q01DX001 (ip), vehicle: saline with Tween-80) was 96 % of control; the T/C (dose: 200.0 mg/kg/injection, schedule: Q01DX001 (ip), vehicle: saline with Tween-80) was 94 % of control; the T/C (dose: 400.0 mg/kg/injection, schedule: Q01DX001 (ip), vehicle: saline with Tween-80) is 94 % of control.

For `COc1ccc(Cl)cc1C(c1cc(Cl)ccc1OC)C(Cl)(Cl)Cl`, the T/C (dose: 100.0 mg/kg/injection, schedule: Q01DX009 (ip), vehicle: saline with Tween-80) was 100 % of control; the T/C (dose: 200.0 mg/kg/injection, schedule: Q01DX009 (ip), vehicle: saline with Tween-80) is 100 % of control; the T/C (dose: 400.0 mg/kg/injection, schedule: Q01DX009 (ip), vehicle: saline with Tween-80) was 90 % of control.

For `CC1(C)OC2C3COC(O3)C(O)C2O1` (centres undefined), the T/C runs as follows: (dose: 100.0 mg/kg/injection, schedule: Q01DX001 (ip), vehicle: saline) 107 % of control; (dose: 200.0 mg/kg/injection, schedule: Q01DX001 (ip), vehicle: saline) 98 % of control; (dose: 400.0 mg/kg/injection, schedule: Q01DX001 (ip), vehicle: saline) 112 % of control.

For `O=C(O)Cc1cn2ccccc2n1`, the T/C runs as follows: (dose: 100.0 mg/kg/injection, schedule: Q01DX001 (ip), vehicle: Klucel (hydroxypropylcellulose) (HPC)) 96 % of control; (dose: 200.0 mg/kg/injection, schedule: Q01DX001 (ip), vehicle: Klucel (hydroxypropylcellulose) (HPC)) 100 % of control; (dose: 400.0 mg/kg/injection, schedule: Q01DX001 (ip), vehicle: Klucel (hydroxypropylcellulose) (HPC)) 93 % of control.

As for `CSc1nsc(SC)c1C(N)=O`, the T/C (dose: 60.0 mg/kg/injection, schedule: Q01DX005 (ip), vehicle: Klucel (hydroxypropylcellulose) (HPC)) is 99 % of control; the T/C (dose: 120.0 mg/kg/injection, schedule: Q01DX005 (ip), vehicle: Klucel (hydroxypropylcellulose) (HPC)) is 98 % of control; the T/C (dose: 240.0 mg/kg/injection, schedule: Q01DX005 (ip), vehicle: Klucel (hydroxypropylcellulose) (HPC)) is 105 % of control.

For `COc1cc2c(c(OC)c1OC)-c1ccc(SCc3ccccc3)c(=O)cc1[C@@H](NC(C)=O)CC2`, the T/C reads like this: (dose: 1.56 mg/kg/injection, schedule: Q01DX009 (ip), vehicle: Klucel (hydroxypropylcellulose) (HPC)) 105 % of control and 111 % of control and 122 % of control; (dose: 1.56 mg/kg/injection, schedule: Q01DX009 (ip), vehicle: saline with Tween-80) 96 % of control; (dose: 3.12 mg/kg/injection, schedule: Q01DX009 (ip), vehicle: Klucel (hydroxypropylcellulose) (HPC)) 105 % of control and 123 % of control; (dose: 3.12 mg/kg/injection, schedule: Q01DX009 (ip), vehicle: saline with Tween-80) 105 % of control; (dose: 6.25 mg/kg/injection, schedule: Q01DX009 (ip), vehicle: saline with Tween-80) 105 % of control; (dose: 12.5 mg/kg/injection, schedule: Q01DX009 (ip), vehicle: Klucel (hydroxypropylcellulose) (HPC)) 169 % of control and 214 % of control. The T/C under setting [1] was 92 % of control.

As for `CCOC(=O)CNC(=O)C(CSCc1ccccc1)NC(=O)C(NC(=O)OCc1ccccc1)C(C)C` (stereo not drawn) (Cbz-Val-Cys(Bn)-Gly-OEt; configuration not given here), the T/C under setting [2] was 98 % of control, the T/C under setting [3] was 100 % of control and the T/C under setting [4] is 88 % of control.

Take `COC(=O)c1cc2cc(OC)c(OC)cc2c2ccccc12`: the T/C by setting is: under setting [5], 90 % of control; under setting [6], 90 % of control.

On to `Cn1c(N(CCN2CCOCC2)C(=O)/C=C\c2ccccc2)cc(=O)n(C)c1=O`, for which the T/C is 105 % of control under setting [5]; 103 % of control (dose: 50.0 mg/kg/injection, schedule: Q01DX005 (ip), vehicle: water); 100 % of control under setting [6]; 112 % of control (dose: 100.0 mg/kg/injection, schedule: Q01DX005 (ip), vehicle: water); 97 % of control (dose: 200.0 mg/kg/injection, schedule: Q01DX005 (ip), vehicle: saline with Tween-80); 109 % of control (dose: 200.0 mg/kg/injection, schedule: Q01DX005 (ip), vehicle: water).

With `O=[N+]([O-])c1ccc(/C=C(/c2ccc([N+](=O)[O-])o2)S(=O)(=O)c2ccccc2)o1`, the T/C (dose: 50.0 mg/kg/injection, schedule: Q01DX009 (ip), vehicle: suspension in saline) was 95 % of control and the T/C (dose: 100.0 mg/kg/injection, schedule: Q01DX009 (ip), vehicle: suspension in saline) is 100 % of control.

Turning to `c1ccc2c(c1)N=NN1CCCOC21` (centres undefined), the T/C (dose: 60.0 mg/kg/injection, schedule: Q01DX005 (ip), vehicle: saline with Tween-80) was 100 % of control; the T/C (dose: 120.0 mg/kg/injection, schedule: Q01DX005 (ip), vehicle: saline with Tween-80) is 95 % of control; the T/C (dose: 240.0 mg/kg/injection, schedule: Q01DX005 (ip), vehicle: saline with Tween-80) was 99 % of control.

For the molecule `Cn1c(=O)[nH]cc(F)c1=O`, the T/C is, setting by setting: (dose: 10.0 mg/kg/injection, schedule: Q01DX009 (ip), vehicle: saline) 104 % of control; (dose: 20.0 mg/kg/injection, schedule: Q01DX009 (ip), vehicle: saline) 100 % of control; (dose: 40.0 mg/kg/injection, schedule: Q01DX009 (ip), vehicle: saline) 98 % of control.

For the molecule `NC(=O)N=C(N)N`, the T/C is 106 % of control under setting [2]; 98 % of control under setting [3]; 101 % of control and 106 % of control under setting [4].

`C=CCCCC(C#N)c1ccc2c(c1)OCO2` (centres undefined): the T/C (dose: 50.0 mg/kg/injection, schedule: Q01DX005 (ip), vehicle: saline) was 105 % of control; the T/C (dose: 100.0 mg/kg/injection, schedule: Q01DX005 (ip), vehicle: saline) was 105 % of control; the T/C (dose: 200.0 mg/kg/injection, schedule: Q01DX005 (ip), vehicle: saline) is 101 % of control.

For the molecule `COc1ccc2ccc3c4c(c(=O)[nH]c3c2n1)CCC4`, the T/C is, setting by setting: under setting [7], 101 % of control; under setting [8], 92 % of control; under setting [9], 105 % of control.

As to `CCSC(C(OC(C)=O)C(OC(C)=O)C(COC(C)=O)OC(C)=O)n1cc(F)c(=O)[nH]c1=O` (centres undefined), the T/C reads like this: (dose: 25.0 mg/kg/injection, schedule: Q01DX005 (ip), vehicle: other) 97 % of control; (dose: 50.0 mg/kg/injection, schedule: Q01DX005 (ip), vehicle: other) 110 % of control; (dose: 100.0 mg/kg/injection, schedule: Q01DX005 (ip), vehicle: other) 105 % of control; (dose: 200.0 mg/kg/injection, schedule: Q01DX005 (ip), vehicle: other) 107 % of control; (dose: 400.0 mg/kg/injection, schedule: Q01DX005 (ip), vehicle: other) 100 % of control; (dose: 400.0 mg/kg/injection, schedule: Q01DX009 (ip), vehicle: other) 92 % of control.

With `COc1ccc(C(=O)Oc2ccc[nH]c2=O)cc1`, the T/C reads like this: (dose: 50.0 mg/kg/injection, schedule: Q01DX009 (ip), vehicle: saline) 102 % of control and 107 % of control; (dose: 100.0 mg/kg/injection, schedule: Q01DX009 (ip), vehicle: saline) 99 % of control and 102 % of control; (dose: 200.0 mg/kg/injection, schedule: Q01DX009 (ip), vehicle: saline) 98 % of control and 102 % of control; (dose: 400.0 mg/kg/injection, schedule: Q01DX009 (ip), vehicle: saline) 104 % of control and 93 % of control.

As for `O=C1c2ccccc2OCC1CS(=O)(=O)CC1COc2ccccc2C1=O` (centres undefined), the T/C is, setting by setting: under setting [7], 98 % of control; under setting [8], 97 % of control; under setting [9], 91 % of control.

For the molecule `CCCCCCCCCCCCCCCCN(C(C)C)S(=O)(=O)c1ccc(Cl)c([N+](=O)[O-])c1`, the T/C was 90 % of control (dose: 50.0 mg/kg/injection, schedule: Q04DX003 (ip), vehicle: saline sonified); 95 % of control (dose: 100.0 mg/kg/injection, schedule: Q04DX003 (ip), vehicle: saline sonified); 95 % of control (dose: 200.0 mg/kg/injection, schedule: Q04DX003 (ip), vehicle: saline sonified).

For the molecule `CC(C)(Cc1ccccc1)C(=C=C=C=C(c1ccccc1)C(C)(C)Cc1ccccc1)c1ccccc1`, the T/C was 101 % of control under setting [1]; 99 % of control (dose: 50.0 mg/kg/injection, schedule: Q01DX009 (ip), vehicle: Klucel (hydroxypropylcellulose) (HPC)); 92 % of control (dose: 100.0 mg/kg/injection, schedule: Q01DX009 (ip), vehicle: Klucel (hydroxypropylcellulose) (HPC)).

The values above are taken from PubChem BioAssay AID330 (DTP/NCI, 2004).
